Here are results for 1 compound from US9834754B2, “Populations of hematopoietic progenitors and methods of enriching stem cells therefor” (University Health Network, priority 2011, dated 2017).

Common to all, as to assay type: cell-based, human
One assay concerns CD34+CD43− populations. Description: OP9-DL1 co-culture for erythroid/myeloid differentiation followed by colony assay. The conditions noted are these: 7 days of co-culture on OP9-DL1; FIG. 6C. The procedure:
Sorted cells were cultured at a concentration of 2×10^4 cells per well on irradiated OP9-DL1 monolayers in OP9 media with VEGF (5 ng/mL), TPO (30 ng/mL), SCF (50 ng/mL), Flt3 (10 ng/mL), IL-11 (5 ng/mL), and BMP-4 (10 ng/mL) in 24-well plates for 7 days. Cells were harvested as above. Analysis of hematopoietic colony potential was performed by plating either 5×103-2.5×10^4 sorted cells or 2.5×104-5.0×104 unfractionated EB populations in 1% methylcellulose containing specific cytokines as described in detail previously (Kennedy et al., 2007). Colonies consisting of erythroid, erythroid/myeloid and myeloid (either macrophage or mast cell) cells were quantified after 10-14 days.

Assay [1] concerns CD34+CD43− cells isolated from Activin A induced or SB-treated EBs. As to the kind of experiment: T lymphoid precursor frequency analysis (limiting dilution assay on OP9-DL4 cells). The conditions noted are these: limiting dilution analyses, day 9 CD34+ population. The method, then:
The hESC line H1 (Thomson et al., 1998) and the reprogrammed human iPS cell line (MSC-iPS1; (Park et al., 2008)) were used in this study. They were maintained on irradiated mouse embryonic fibroblasts in hESC media as described previously (Kennedy et al., 2007). Prior to differentiation, the cells were feeder-depleted by culturing on matrigel (BD Biosciences, Bedford, Mass.) in hESC media for 24 to 48 hours. To generate EBs, hPSCs were treated with collagenase B (1 mg/ml; Roche, Indianapolis, Ind.) for 20 minutes followed by a short trypsin-EDTA (0.05%) step. Cells were gently scraped with a cell scraper to form small aggregates (10-20 cells). Aggregates were resuspended in StemPro-34 (Invitrogen), supplemented with penicillin/streptomycin (10 ng/mL), L-glutamine (2 mM), ascorbic acid (1 mM), monothioglycerol (MTG, 4×10^−4M; Sigma), and transferrin (150 μg/mL). […]
Limiting dilution assays (LDA) of CD34+CD43− cells isolated from either Activin A induced or SB-treated EBs were performed by serial dilutions. […] The presence of CD45+CD7+CD43+CD5+ cells was scored. Progenitor frequencies were determined by the method of maximum likelihood applied to the Poisson model (Groth, 1982).

In assay [2] the test system is CD34+ population isolated from EBs. Description: RT-qPCR expression analysis of CD34+ fractions from day 9 EBs. The conditions noted are these: FIG. 4E. The method, then:
Total RNA was prepared with the RNAqueous RNA Isolation Kit (Ambion) and treated with RNase-free DNase (Qiagen). 100 ng to 1 ug RNA was transcribed into cDNA using random hexamers and Oligo (dT) with Superscript III Reverse Transcriptase (Invitrogen). Real-time quantitative PCR was performed on a MasterCycler EP RealPlex (Eppendorf). All experiments were carried out in triplicate using SYBR Green JumpStart Taq ReadyMix (Sigma). The oligonucleotide sequences are available upon request. Gene expression was evaluated as DeltaCt relative to control (ACTB).

The next assay concerns day 9 CD34+ progenitors. Description: OP9-DL4 co-culture for T-lineage differentiation. The conditions noted are these: cultured on OP9-DL4 cells; FIG. 5A. The procedure: OP9 cells retrovirally-transduced to express Delta-like 4 (OP9-DL4) were generated and maintained in α-MEM medium supplemented with penicillin/streptomycin and 20% FBS (OP9 media) as previously described (La Motte-Mohs et al., 2005; Schmitt et al., 2004). 5-10×10^4 sorted human EB-derived subsets were added to individual wells of a 6-well plate containing OP9-DL4 cells, and cultured in OP9-media supplemented with rhFlt-3L (5 ng/mL) and rhIL-7 (5 ng/mL), (Peprotech, Rocky Hill, N.J.). rhSCF (100 ng/mL) was added for the first 8 days only, Every five days co-cultures were transferred onto fresh OP9-DL4 cells by vigorous pipetting and passaging through a 40 μm cell strainer to remove stromal cells.

The test system of assay [3] is H1 hESCs differentiated as embryoid bodies (EBs). As to the kind of experiment: Hematopoietic colony assay of hESC-derived EBs. The procedure: The hESC line H1 (Thomson et al., 1998) and the reprogrammed human iPS cell line (MSC-iPS1; (Park et al., 2008)) were used in this study. They were maintained on irradiated mouse embryonic fibroblasts in hESC media as described previously (Kennedy et al., 2007). Prior to differentiation, the cells were feeder-depleted by culturing on matrigel (BD Biosciences, Bedford, Mass.) in hESC media for 24 to 48 hours. To generate EBs, hPSCs were treated with collagenase B (1 mg/ml; Roche, Indianapolis, Ind.) for 20 minutes followed by a short trypsin-EDTA (0.05%) step. Cells were gently scraped with a cell scraper to form small aggregates (10-20 cells). Aggregates were resuspended in StemPro-34 (Invitrogen), supplemented with penicillin/streptomycin (10 ng/mL), L-glutamine (2 mM), ascorbic acid (1 mM), monothioglycerol (MTG, 4×10^−4M; Sigma), and transferrin (150 μg/mL). BMP-4 (10 ng/mL), bFGF (5 ng/mL), Activin A, 6 μM SB-431542, VEGF (15 ng/mL), Dkk (150 ng/mL), IL-6 (10 ng/mL), IGF-1 (25 ng/mL), IL-11 (5 ng/mL), SCF (50 ng/mL), EPO (2 U/mL final), TPO (30 ng/mL), IL-3 (30 ng/mL) and Flt-3L (10 ng/mL) were added as indicated. Cultures were maintained in a 5% CO2/5% O2/90% N2 environment for the first 8 days and then transferred to a 5% CO2/air environment. All recombinant factors are human and were purchased from R&D Systems (Minneapolis, Minn.).
Analysis of hematopoietic colony potential was performed by plating either 5×103-2.5×10^4 sorted cells or 2.5×104-5.0×104 unfractionated EB populations in 1% methylcellulose containing specific cytokines as described in detail previously (Kennedy et al., 2007). Colonies consisting of erythroid, erythroid/myeloid and myeloid (either macrophage or mast cell) cells were quantified after 10-14 days.

As for `NC(=O)c1ccc(-c2nc(-c3ccc4c(c3)OCO4)c(-c3ccccn3)[nH]2)cc1` [SB-431542], the “numbers of erythroid and erythroid-myeloid progenitors versus Activin A-induced progenitors” value with CD34+CD43− populations is recorded as “significantly higher numbers”. Moreover, the “frequency of T cell progenitors in SB-treated CD34+ population relative to Activin A-induced CD34+CD43− population” value in assay [1] is “more than 3 fold”. Besides, in assay [2], the “expression of LMO2, GATA1, GATA2 and HOXB4 versus Activin A-induced population” value is on record as “comparable”; the “expression of SOX17 and AML1C in CD34+ population versus Activin A-induced CD34+CD43− population” value is listed as “higher levels”. In addition, in the assay with day 9 CD34+ progenitors, the “T cell generation from SB-treated day 9 CD34+ progenitors” value was “generated T cells”. The “erythroid progenitors in SB-treated EBs” value in assay [3] (any of the timepoints assayed, FIG. 4D) is “not detected”. For the same compound, the “erythroid progenitors in day 13 EBs” value in assay [3] (treatment between days 2 and 4 of differentiation, Activin A at increasing concentrations, FIG. 1C) is on record as “eliminated almost all erythroid progenitors”.
